The assay has as its target T1, human AR (Homo sapiens, UniProt P10275).
T1 construct: expressed in transfected cells; host or cells: COS-1 cells
T1 sequence (P10275 1-920): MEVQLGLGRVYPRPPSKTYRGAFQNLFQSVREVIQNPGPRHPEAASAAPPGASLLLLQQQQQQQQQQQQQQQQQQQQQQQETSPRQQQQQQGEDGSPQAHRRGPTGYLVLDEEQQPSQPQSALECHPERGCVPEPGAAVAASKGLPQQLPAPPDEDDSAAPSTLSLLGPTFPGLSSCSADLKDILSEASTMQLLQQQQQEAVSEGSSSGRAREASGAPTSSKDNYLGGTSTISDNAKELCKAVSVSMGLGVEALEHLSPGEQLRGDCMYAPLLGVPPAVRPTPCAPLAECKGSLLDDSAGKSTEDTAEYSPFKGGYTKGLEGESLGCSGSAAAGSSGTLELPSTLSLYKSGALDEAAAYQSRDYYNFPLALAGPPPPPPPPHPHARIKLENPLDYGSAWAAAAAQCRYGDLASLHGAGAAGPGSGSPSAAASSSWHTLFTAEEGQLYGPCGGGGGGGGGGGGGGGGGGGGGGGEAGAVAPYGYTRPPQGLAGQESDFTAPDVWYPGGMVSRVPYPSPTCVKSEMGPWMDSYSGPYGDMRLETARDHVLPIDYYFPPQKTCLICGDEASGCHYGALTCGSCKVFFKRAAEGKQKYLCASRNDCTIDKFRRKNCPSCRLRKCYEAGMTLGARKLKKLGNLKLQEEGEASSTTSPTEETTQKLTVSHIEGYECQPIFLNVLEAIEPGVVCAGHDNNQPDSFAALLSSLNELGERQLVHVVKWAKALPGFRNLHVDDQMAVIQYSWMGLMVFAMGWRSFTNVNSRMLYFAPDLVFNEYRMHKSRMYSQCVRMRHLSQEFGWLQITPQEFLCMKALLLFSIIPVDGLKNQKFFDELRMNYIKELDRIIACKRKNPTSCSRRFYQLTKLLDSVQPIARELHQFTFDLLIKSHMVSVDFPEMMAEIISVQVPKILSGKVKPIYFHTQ
The assay can be described thus: IR Binding Assay: whole cell competitive binding of test compounds against 3H-DHT in COS-1 cells transfected with pRShAR. The method in brief: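 COS-1 cells transfected with pRShAR plus β-Gal reporter, serum-starved 24 h, then exposed to 1 nM ³H-DHT with compounds at 10^−10 to 10^−6 M for 3 h at 37 °C. Bound ³H-DHT counted in lysates, normalized to β-Gal. IC50 from log-logit plot; Ki via Cheng-Prusoff using Kd from Scatchard saturation analysis.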
Usually Ki stands for the dissociation constant of the complex between target and ligand, obtained from inhibition or displacement. Turning to `Cc1c(-c2ccccn2)n(CC(F)(F)C(F)(F)F)c2ccc3[nH]c(=O)cc(Cl)c3c12` [Compound 265, 9-Chloro-1-methyl-3-(2,2,3,3,3-pentafluoropropyl)-2-(2-pyridyl)-3,6-dihydro-pyrrolo[3,2-f]quinolin-7-one], the inhibition constant Ki was less than 5 nM. The value for `Cc1c(-c2ncco2)n(CC(F)(F)C(F)(F)F)c2ccc3[nH]c(=O)cc(Cl)c3c12` [Compound 266, 9-Chloro-1-methyl-2-(oxazol-2-yl)-3-(2,2,3,3,3-pentafluoropropyl)-3,6-dihydro-pyrrolo[3,2-f]quinolin-7-one] was less than 5 nM. `Cc1ccc(-c2c(C)c3c4c(Cl)cc(=O)[nH]c4ccc3n2CC(F)(F)C(F)(F)F)o1` [Compound 267, 9-Chloro-1-methyl-2-(5-methylfuran-2-yl)-3-(2,2,3,3,3-pentafluoropropyl)-3,6-dihydro-pyrrolo[3,2-f]quinolin-7-one] returned a Ki of 5 to 10 nM. The compound `Cc1ccc(-c2c(C)c3c4c(Cl)cc(=O)[nH]c4ccc3n2CC(F)(F)C(F)(F)F)s1` [Compound 268, 9-Chloro-1-methyl-2-(5-methylthiophen-2-yl)-3-(2,2,3,3,3-pentafluoropropyl)-3,6-dihydro-pyrrolo[3,2-f]quinolin-7-one] displayed an inhibition constant (Ki) of less than 5 nM.

On to `Cc1c(CCCCl)c2c3c(Cl)cc(=O)[nH]c3ccc2n1CC(F)(F)C(F)(F)F` [Compound 269, 9-Chloro-1-(3-chloropropyl)-2-methyl-3-(2,2,3,3,3-pentafluoropropyl)-3,6-dihydro-pyrrolo[3,2-f]quinolin-7-one], for which the Ki was more than 10 nM. Turning to `Cc1c(CCCI)c2c3c(Cl)cc(=O)[nH]c3ccc2n1CC(F)(F)C(F)(F)F` [Compound 270, 9-Chloro-1-(3-iodopropyl)-2-methyl-3-(2,2,3,3,3-pentafluoropropyl)-3,6-dihydro-pyrrolo[3,2-f]quinolin-7-one], the Ki was more than 10 nM.

`Cc1c(-c2ccccc2)n(C[C@H](O)C(F)(F)F)c2ccc3[nH]c(=O)cc(Cl)c3c12` [Compound 271, (S)-9-Chloro-1-methyl-2-phenyl-3-(3,3,3-trifluoro-2-hydroxy-propyl)-3,6-dihydro-pyrrolo[3,2-f]quinolin-7-one] registered an inhibition constant Ki of less than 5 nM. The value for `Cc1c(-c2cccs2)n(C[C@H](O)C(F)(F)F)c2ccc3[nH]c(=O)cc(Cl)c3c12` [Compound 272, (S)-9-Chloro-1-methyl-2-thiophen-2-yl-3-(3,3,3-trifluoro-2-hydroxy-propyl)-3,6-dihydro-pyrrolo[3,2-f]quinolin-7-one] was less than 5 nM. The value for `Cc1c(-c2ccncc2)n(C[C@H](O)C(F)(F)F)c2ccc3[nH]c(=O)cc(Cl)c3c12` [Compound 273, (S)-9-Chloro-1-methyl-2-(4-pyridyl)-3-(3,3,3-trifluoro-2-hydroxy-propyl)-3,6-dihydro-pyrrolo[3,2-f]quinolin-7-one] was more than 10 nM; that for `Cc1c(-c2cccnc2)n(C[C@H](O)C(F)(F)F)c2ccc3[nH]c(=O)cc(Cl)c3c12` [Compound 274, (S)-9-Chloro-1-methyl-2-(3-pyridyl)-3-(3,3,3-trifluoro-2-hydroxy-propyl)-3,6-dihydro-pyrrolo[3,2-f]quinolin-7-one] was more than 10 nM. The value for `Cc1c(-c2ccccn2)n(C[C@H](O)C(F)(F)F)c2ccc3[nH]c(=O)cc(Cl)c3c12` [Compound 275, (S)-9-Chloro-1-methyl-2-(2-pyridyl)-3-(3,3,3-trifluoro-2-hydroxy-propyl)-3,6-dihydro-pyrrolo[3,2-f]quinolin-7-one] was 5 to 10 nM.

The compound `Cc1c(-c2nccs2)n(C[C@H](O)C(F)(F)F)c2ccc3[nH]c(=O)cc(Cl)c3c12` [Compound 276, (S)-9-Chloro-1-methyl-2-(1,3-thiazol-2-yl)-3-(3,3,3-trifluoro-2-hydroxy-propyl)-3,6-dihydro-pyrrolo[3,2-f]quinolin-7-one] displayed a Ki of more than 10 nM.

(Values after patent publication US8580811B2 (Ligand Pharmaceuticals Incorporated, priority 2005, dated 2013).)
